Test results as given in patent publication US20100247564A1, “METHODS AND COMPOSITIONS FOR THE USE OF SARGASSUM FUSIFORME FOR THE INHIBITION OF HIV-1 INFECTION” (priority 2007, published 2010).
Like-named read-outs stand apart in the source and are kept apart here.

Key:
[1] = test system: CXCR4 tropic HIV-1 (NL4-3); experiment: HIV-1 (NL4-3) replication in 1G5 T cells, luciferase expression; assay type: cell-based
[2] = test system: 1G5 T cells; experiment: Viability of HIV-1 infected 1G5 T cells (MTT uptake, trypan blue exclusion); assay type: cell-based; settings: 10^−6 M ddC
Description: FIGS. 2A-B show the dose response of HIV-1 inhibition and cell viability in T cells treated with S. fusiforme. […] The cells were washed 3 times and then returned to culture. On day 3 after infection, intracellular luciferase gene marker expression was measured from cell lysates adjusted to the same number of viable cells using an MTT assay (A).
FIGS. 3A-B show the time course of HIV-1 inhibition and viability in T cells. […] Cell viability was determined by trypan blue exclusion assay (B).
Next, we investigated the ability of S. fusiforme extracts to inhibit HIV-1 infection in 1G5 T cells. […] On day 3 after infection, equal numbers of viable cells were analyzed for intracellular luciferase expression and cell viability was measured using an MTT uptake assay (FIG. 2). HIV-1 inhibition was calculated by comparing treated and untreated cell cultures (both infected with HIV-1). […] Treatment with ddC blocked virus replication by over 98%. In parallel, we tested for MTT uptake by viable cells, which remained high regardless of the concentration of S. fusiforme extract used in treatment (FIG. 2B).
Infection was monitored by luciferase expression at specific time points after infection (FIG. 3A). […] Treatment with 2 mg/ml of S. fusiforme inhibited infection by 77, 99, and 99% on days 3, 5, and 7, respectively (FIG. 3A). Inhibition by ddC was 99% at each time point tested. […]

[3] = test system: primary CCR5-tropic isolate ADA; experiment: HIV-1 ADA infection of microglia, p24 ELISA; settings: Human immunodeficiency virus 1, Microglia, 72 h
Description: Either macrophages (A) or microglia (B) were treated for 24 hours with 1 mg/ml S. fusiforme or with 10^−6 M ddC, infected with primary CCR5-tropic isolate ADA at 0.2 pg of p24/cell for 2 hours, washed 3 times, and returned to culture. At the indicated time points after infection, HIV-1 expression was monitored by p24 production in cell-free supernatants by ELISA and the percent inhibition was calculated and plotted on the Y-axis.
Next, we treated fetal microglial cell cultures with either 1 mg/ml of S. fusiforme or 10^−6 M ddC and monitored infection kinetics by p24 production in cell-free supenatants at the indicated time points after infection (FIG. 5B).

[4] = test system: HIV-1 (NL4-3) cell-to-cell fusion; experiment: Cell-to-cell infection and syncytia formation in co-culture (infected CEM/1G5; infected 1G5/GHOST); settings: only 10^−6 M ddC
[5] = target: T1, recombinant HIV-1 RT (Human immunodeficiency virus type 1 group M subtype B, UniProt P04585); experiment: Cell-free fluorescent reverse transcriptase (RT) assay; assay type: biochemical; settings: 2-fold serial dilutions, two units recombinant HIV-1 RT
T1 construct: recombinant HIV-1 RT; purchased Ambion

[6] = test system: cell fusion (anti-HIV activity); experiment: Inhibition of cell fusion by individual fatty acids; assay type: cell-based; settings: Human immunodeficiency virus 1, read-out: percentage of inhibition of cell fusion; for inhibition at 1 µg/mL: 1 μg/ml; for inhibition at 5 µg/mL: 5 μg/ml
Description: Anti-HIV activity of the individual fatty acids was tested at four different concentrations. The values given in Table 1 represent the percentage of inhibition of cell fusion in the presence of each fatty acid.

[7] = test system: BlaM-Vpr-X4-tropic NL4-3; experiment: microbe, parasite or virus in culture; assay type: cell-based, HIV-1
[8] = target: T2, sCD4 (Homo sapiens, UniProt P01730); experiment: Dot blot binding of 14C-labeled PA to sCD4; settings: 100 μM 14C-PA, increasing concentrations of sCD4
T2 construct: soluble CD4 (sCD4) protein; purchased Progenics Pharmaceuticals
Description: (§1) FIGS. 14A-C show the inhibition of HIV-1 fusion and CD4 interaction upon PA treatment. […] The percent of infected cells is indicated inside each quadrant. Cells were loaded with CCF2/AM dye and fusion was analyzed by multiparameter flow cytometry using a violet laser for excitation of CCF, and gated from 10,000 cells. […] The percent inhibition was plotted on the y-axis. […] The dot-blot membrane was washed and exposed to film, which was then scanned and the dot-blot total pixel mean value (intensity*mm^2) was quantified and plotted on the y-axis.
(§2) To further test this hypothesis and reveal a possible physical interaction between PA and sCD4, we performed dot blot analysis with ^14C-labeled PA (^14C-PA) incubated together with increasing concentrations of sCD4, ubiquitin, or S100A12 proteins (FIG. 14C). PVDF membrane (BioRad) was pretreated with 100 μM PA for 1 hour at room temperature (RT). Indicated concentrations of each protein in 10 μl/well were run through the vacuum of the dot blot apparatus. The membrane was then incubated with 100 μM ^14C-labeled PA (^14C-PA) in 33% ethanol for 1 hour at room temperature, and then washed in 33% ethanol and exposed to film. Blot total pixel mean value intensity was quantified by Quantity One 4.6.1 software (BioRad).

[9] = target: ubiquitin (Homo sapiens, UniProt P0CG47); experiment: Dot blot binding of 14C-labeled PA to ubiquitin; settings: 100 μM 14C-PA
Description: as §1, §2

[10] = target: T3, S100A12 (Homo sapiens, UniProt P80511); experiment: Dot blot binding of 14C-labeled PA to S100A12; settings: 100 μM 14C-PA
T3 sequence (P80511 1-92): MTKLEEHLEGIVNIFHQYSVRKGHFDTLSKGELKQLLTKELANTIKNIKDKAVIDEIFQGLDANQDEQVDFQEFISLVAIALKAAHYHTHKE
Description: as §1, §2

[11] = target: T2, sCD4; experiment: Saturation transfer difference NMR (STD-NMR) binding to sCD4; settings: NMR buffer with 20% d6-DMSO, room temperature
Description: FIGS. 15A-E show in vitro binding experiments of sCD4 with PA. FIG. 15A is a homonuclear NMR spectrum of 100 μM PA in the NMR buffer (10 mM KPO4 buffer, pH 7.0, 20% d6-DMSO, and 80% D2O). […] Tryptophan fluorescence was measured using an excitation wavelength of 280 nm. An increase of PA causes a red shift of 2 nm and quenching of the tryptophan fluorescence of sCD4.
We used a one-dimensional saturation transfer difference NMR (STD-NMR) experiment to characterize the binding of PA to sCD4 in vitro. […]
To perform the STD-NMR experiment, we used commercially available sCD4 (200 μg, 4.4 nmol, Progenics Pharmaceuticals), which was exchanged into the NMR buffer (160 μl of D2O and 40 μl d6-DMSO, containing 10 mM KPO4 buffer, pH 7.0). […] The NMR data were processed and analyzed using Topspin 2.0 (Bruker).
During the STD-NMR experiment, we titrated increasing concentrations of PA into sCD4 solution, and observed PA binding to sCD4, as shown by an increase in the intensity of the ligand STD-NMR signal (FIGS. 15A and 15B). The intensity of the STD signal was quantified by calculating the difference between the intensity of one signal in the off-resonance NMR spectrum, or reference NMR spectrum (I0), and the intensity of a signal in the on-resonance NMR spectrum (Isat) for various concentrations of the ligand (FIG. 15C). […]

[12] = Human immunodeficiency virus 1, NL43, SUP-T1, read-out: inhibition of fusion

Nc1ccn([C@H]2CC[C@@H](CO)O2)c(=O)n1 [ddC, 2′,3′-didoxycytidine]
virus replication blocked ([1]; 10^−6 M ddC, day 3 after infection): over 98% | inhibition at 1 µM ([1]; Human immunodeficiency virus 1, NL43, T-cell, read-out: inhibition of infection): 99% | luciferase expression ([1]; ddC control culture, mock-treated 29,601 RLU): 587 RLU | cell viability compared with S. fusiforme-treated cultures [2]: similar | inhibition at 1 µM ([3]; read-out: virus inhibition, 10^−6 M ddC, after day 3): > 90% | inhibition at 1 µM ([3]; read-out: virus inhibition, 10^−6 M ddC, day 3): 72% | inhibition of luciferase expression [4]: 69%

CCCCCCCC/C=C\CCCCCCCC(=O)O [Oleic acid, oleic acid]
RT inhibition (in words) [5]: potent RT inhibitors | inhibition at 1 µg/mL [6]: 0% | inhibition at 5 µg/mL [6]: 0%

c1cc(CN2CCCNCCNCCCNCC2)ccc1CN1CCCNCCNCCCNCC1 [AMD3100, reference compound]
fusion positive cells ([7]; 250 nM AMD3100, 51.5% without treatment): 28.7% | virus-positive cells ([7]; AMD3100 in the PA experiment, 37.6% untreated): 2.8% | inhibition at 0.25 µM [7, 12]: 44.5% | inhibition at 0.5 µM [7, 12]: 80%

CCCCCCCCCCCCCCCC(=O)O [^14C-PA]
binding to sCD4 (dot blot) [8]: dose-dependent | binding to ubiquitin (dot blot) [9]: did not bind | binding to S100A12 (dot blot) [10]: did not bind

CCCCCCCCCCCCCC(=O)O [Myristic acid, myristic acid]
inhibition at 1 µg/mL [6]: 8.8% | inhibition at 5 µg/mL [6]: 26.4% | STD-NMR signal on titration into sCD4 solution [11]: No STD-NMR signal was observed

CCCCC/C=C\C/C=C\CCCCCCCC(=O)O [Linoleic acid, linoleic acid]
RT inhibition (in words) [5]: potent RT inhibitors | inhibition at 1 µg/mL [6]: 0% | inhibition at 5 µg/mL [6]: 0%
